From patent US20260027073A1, “USE OF SMALL-MOLECULE COMPOUND HAVING NAPHTHYLAMINE STRUCTURE” (HANGZHOU PHECDAMED CO., LTD., priority 2023, published 2026) come the findings set out here.

Assay [1] relates to chronic epilepsy mouse model. Nature of the assay: PTZ chronic epilepsy model. Format: in vivo, ICR mice. The conditions noted are these: for seizure grade (Racine grading) / latency in platform jumping (Step-down) experiment / Step-through latency, dark avoidance experiment: 30 mg/kg oral gavage, 21 days; for seizure grade (Racine grading): FIG. 63; for latency in platform jumping (Step-down) experiment: FIG. 64; for Step-through latency, dark avoidance experiment: FIG. 65; for serum IL-1β level / serum TNF-α level: 30 mg/kg, to a certain degree, FIG. 66. On the procedure: Clean grade 8-10 week old male ICR mice were selected for the preparation of a chronic epilepsy mouse model. They were randomly divided into four groups: normal control group (Control, 0.5% CMC-Na treatment by oral gavage, n=8), model group (Model, 0.5% CMC-Na treatment by oral gavage, n=8), TJ01-013 treatment group (TJ01-013, 30 mg/kg TJ01-013 by oral gavage, n=8), I-14-1 treatment group (I-14-1, 30 mg/kg I-14-1 by oral gavage, n=8). Starting from the first day of the experiment, at 10-11 am every day, mice in all groups except the normal control group were injected intraperitoneally with PTZ 40 mg/kg and the normal control group was injected with the corresponding volume of saline for a total of 21 days. The drug administration treatment was started right after the start of modeling, and the drug was administered once a day for a total of 21 days, and the corresponding tests were performed at the end of the drug administration.
Epileptic seizure grading standard is based on Racine grading: Grade 0, no convulsive response, manifested as normal behavior state; Grade I, facial muscle spasm, manifested as rhythmic chewing, blinking, moving whiskers, etc.; Grade II, neck muscle spasm, manifested as head nodding with or without tail erecting; Grade III, forelimb lifting, clonic or rhythmic twitching; Grade IV, hindlimb tonic or standing tonic; Grade V, generalized clonic, standing tonic and falling down; loss of balance.
The platform jumping experiment is an experimental method designed to utilize the habit of experimental mice to jump down from a high place immediately to explore the surrounding environment. The experimental mice are placed on a high platform, and at the moment of jumping down, they are given electrical stimulation. Then in order to avoid the electric stimulus, the animals will not jump off the platform, while the mice that are not good at learning and memorizing will maintain their habit and jump off the platform. At the end of each round of the experiment, 75% alcohol were sprayed for wiping to avoid odor interference between the mice. The experiment was conducted after the administration, and the experimental device was a cubic box with a (10 cm×10 cm) electric fence at the bottom and a height of 30 cm, with a platform of 3.2 cm in height and 4.2 cm in diameter inside. The experimental steps and procedures of this experiment were divided into: (1) The mice were put into the bottom of the experimental device, which was not energized at this time, so that they were free to explore and adapt to the environment for 10 s. (2) The mice were placed on the high platform inside the experimental device, and the time at which the mice jumped off the high platform was recorded as Initial latency, and were given electrical stimulation (50 Hz, 20 V, 5 s). (3) After 24 h, the mice were placed on the platform again, and the time at which they jumped off the platform was recorded as Step-down latency. The residence time of the mice on the high platform should not exceed 60 s, and the time exceeding 60 s was still recorded as 60 s.
The step through dark avoidance experiment is an experimental method designed to utilize the tendency of mice to move around in dark environments more than in bright environments. The experimental mice are placed in a bright environment of a bright and dark environment connecting device, and then electrically stimulated when they enter the dark environment. Then in order to avoid the electric stimulus, they will move into the light environment, while mice that are not good at learning and memorizing will maintain their habit and enter the dark environment. At the end of each round of the experiment, 75% alcohol were sprayed for wiping to avoid odor interference between mice. This experiment was conducted at the end of the administration. […]

The test system of the next assay is CUP model mice. Kind of assay: Multiple sclerosis CUP model. Format: in vivo, C57BL/6. The settings on record: for number of open arm entries (elevated cross maze) / walking distance (elevated cross maze) / open arm time (elevated cross maze) / number of crossing over the platform (water maze): 30 mg/kg oral gavage; for number of open arm entries (elevated cross maze): FIG. 86; for walking distance (elevated cross maze): FIG. 87; for open arm time (elevated cross maze): FIG. 88; for number of crossing over the platform (water maze): FIG. 89. On the procedure:
After one week of adaptive feeding in 7-8 weeks C57BL/6 female […], they were randomly divided into four groups according to their body weights: the normal control group (Control, 0.5% CMC-Na treatment by oral gavage, n=8), the model group (model, 0.5% CMC-Na treatment by oral gavage, n=8), TJ01-013 treatment group (TJ01-013, 30 mg/kg TJ01-013 by oral gavage, n=8), I-14-1 treatment group (I-14-1, oral gavage 30 mg/kg I-14-1, n=8). The normal control group was fed with the basal diet throughout for 12 weeks, and the model group, TJ01-013 treatment group, and I-14-1 treatment group were fed with 0.2% CUP diet throughout. All groups were administered 5 ml/kg in a volume of 5 ml/kg for a total of 12 weeks starting 6 weeks after modeling.
The elevated cross maze consisted of two open arms (35 cm×6 cm) and two closed arms (35 cm×6 cm×14 cm), with the middle area (6 cm×6 cm) and a height of 70 cm above the ground, and the mice were placed in the middle area facing the open arms, and were active for 5 min in a 50 cm×50 cm open field prior to the start of the test. During the test, the activity time, the activity distance and the number of open arm entries in the mice were counted. Each mouse was wiped with 75% alcohol on the maze after the test.
The mice were placed in a basin with a diameter of 70 cm and a height of 30 cm, and the water temperature was about 22-24° C. The basin was divided into four quadrants, and a platform with a diameter of 5 cm was placed in the target quadrant, which was placed 1 cm below the surface of the water. The mice were acclimatized for 1 day before the official test and learned for 4 days, during learning, the mice entered the water in the direction of facing the wall of the basin, and were given 60 s to search for the platform, or else were guided to learn for 30 s on the platform, and the time that the mice found the platform during learning was recorded. The platform was withdrawn on the day of the test, and the number of crossing over the platform after entering from the opposite quadrant of the target quadrant in mice was recorded to determine the spatial learning and memory ability of the mice.

On to `O=C(O)C[S+]([O-])c1cc(NS(=O)(=O)c2ccc(Br)cc2)c2ccccc2c1O` (centres unmarked) [I-1], for which, in assay [1], the “seizure grade (Racine grading)” value is given as “significant difference in reducing seizures”; the “latency in platform jumping (Step-down) experiment” value is recorded as “increase the Initial latency to a certain degree”; the “Step-through latency, dark avoidance experiment” value is reported as “increase the latency to a certain extent”; the “serum IL-1β level” value was “reduce”. Further, the “serum TNF-α level” value in assay [1] was “reduce”. The “treatment effect of TJ01-013 compared with I-14-1” value in assay [1] (both 30 mg/kg, per readout of the block) was “significantly better”. Besides, in the assay with CUP model mice, the “number of open arm entries (elevated cross maze)” value is reported as “significantly reduced”, the “walking distance (elevated cross maze)” value is on record as “reduced”, the “open arm time (elevated cross maze)” value was “significantly decreased” and the “number of crossing over the platform (water maze)” value was “increased”. For the same compound, the “treatment of TJ01-013 compared with I-14-1” value in the assay with CUP model mice (per readout of the block) is “significantly better”.

Turning to `O=C(O)C[S+]([O-])c1cc(NS(=O)(=O)c2ccc(C(F)(F)F)cc2)c2ccccc2c1O` (centres unmarked) [I-14-1], in assay [1], the “seizure grade (Racine grading)” value is given as “reduce the seizure grade”; the “latency in platform jumping (Step-down) experiment” value is reported as “increase the Initial latency to a certain degree”; the “Step-through latency, dark avoidance experiment” value is recorded as “increase the latency to a certain extent”; the “serum IL-1β level” value was “reduce”. Also, the “serum TNF-α level” value in assay [1] is reported as “reduce”. In addition, in the assay on CUP model mice, the “number of open arm entries (elevated cross maze)” value was “significantly reduced”, the “walking distance (elevated cross maze)” value is recorded as “reduced”, the “open arm time (elevated cross maze)” value is given as “significantly decreased” and the “number of crossing over the platform (water maze)” value is “increased”.
